Reference: the NIST ThermoML archive (doi:10.1016/j.tca.2018.04.018)
Numbers after ± are expanded uncertainties.

Columns and labels:
[1] = molar heat capacity at constant pressure; xn = mol fraction of the nth substance listed; conditions: Flow calorimetry
[2] = molar heat capacity at constant pressure; conditions: 3000 kPa, Flow calorimetry

CCCCC [pentane] + CC(C)=O
[1]
Conditions | molar heat capacity at constant pressure [J/K/mol]
423.14 K, 3900 kPa, Liquid, x1 = 0.25 | 170.75 ± 3.9
423.14 K, 7920 kPa, Liquid, x1 = 0.5 | 179.32 ± 4.2
423.15 K, 2000 kPa, Liquid, x1 = 0.25 | 174.5 ± 4.1
423.15 K, 2900 kPa, Liquid, x1 = 0.5 | 194.43 ± 4.6
423.15 K, 4000 kPa, Liquid, x1 = 0.5 | 190.78 ± 4.4
423.15 K, 6000 kPa, Liquid, x1 = 0.25 | 171.36 ± 4
423.15 K, 6050 kPa, Liquid, x1 = 0.5 | 184.14 ± 4.3
423.15 K, 7960 kPa, Liquid, x1 = 0.25 | 163.97 ± 3.8
423.16 K, 1080 kPa, Gas, x1 = 0.5 | 145.86 ± 3.4
423.16 K, 2300 kPa, Liquid, x1 = 0.25 | 175.12 ± 4.1
423.17 K, 1080 kPa, Gas, x1 = 0.25 | 135.14 ± 3.1
483.14 K, 2960 kPa, Gas, x1 = 0.5 | 180.5 ± 5
483.14 K, 4000 kPa, Gas, x1 = 0.5 | 283.18 ± 6.9
483.15 K, 4480 kPa, Fluid (supercritical or subcritical phases), x1 = 0.5 | 750.83 ± 54
483.15 K, 7050 kPa, Fluid (supercritical or subcritical phases), x1 = 0.5 | 233.69 ± 8.7
483.15 K, 8160 kPa, Fluid (supercritical or subcritical phases), x1 = 0.5 | 218.13 ± 9
483.16 K, 5000 kPa, Fluid (supercritical or subcritical phases), x1 = 0.5 | 446.03 ± 32
483.16 K, 6100 kPa, Fluid (supercritical or subcritical phases), x1 = 0.5 | 260.13 ± 6.9
493.15 K, 3860 kPa, Gas, x1 = 0.25 | 221.56 ± 5.2
493.15 K, 4530 kPa, Fluid (supercritical or subcritical phases), x1 = 0.25 | 611.96 ± 120
493.15 K, 4742 kPa, Fluid (supercritical or subcritical phases), x1 = 0.25 | 1236.9 ± 140
493.15 K, 7920 kPa, Fluid (supercritical or subcritical phases), x1 = 0.25 | 214.05 ± 5.6
493.16 K, 3140 kPa, Gas, x1 = 0.25 | 173.64 ± 4.1
493.16 K, 6000 kPa, Fluid (supercritical or subcritical phases), x1 = 0.25 | 263.45 ± 9.7
503.14 K, 3200 kPa, Gas, x1 = 0.25 | 167.97 ± 3.9
503.14 K, 4120 kPa, Gas, x1 = 0.25 | 214.42 ± 5.1
503.15 K, 6180 kPa, Fluid (supercritical or subcritical phases), x1 = 0.25 | 330.59 ± 10
503.15 K, 7820 kPa, Fluid (supercritical or subcritical phases), x1 = 0.25 | 229.45 ± 5.9
503.16 K, 5400 kPa, Fluid (supercritical or subcritical phases), x1 = 0.25 | 600.07 ± 43
508.15 K, 2980 kPa, Gas, x1 = 0.5 | 175.81 ± 4.1
508.15 K, 4060 kPa, Gas, x1 = 0.5 | 200.68 ± 7.4
508.15 K, 6050 kPa, Fluid (supercritical or subcritical phases), x1 = 0.5 | 360.73 ± 12
508.15 K, 6930 kPa, Fluid (supercritical or subcritical phases), x1 = 0.5 | 310.98 ± 9.1
508.15 K, 8010 kPa, Fluid (supercritical or subcritical phases), x1 = 0.5 | 261.37 ± 7.9
508.16 K, 5030 kPa, Fluid (supercritical or subcritical phases), x1 = 0.5 | 258.63 ± 9.6

O [water]
[2]
Conditions | molar heat capacity at constant pressure [J/K/mol]
330.2 K, Liquid | 75.29 ± 1.7
340.1 K, Liquid | 75.41 ± 1.7
358.4 K, Liquid | 75.61 ± 1.8
368.2 K, Liquid | 75.61 ± 1.8
378.6 K, Liquid | 75.99 ± 1.8
388.4 K, Liquid | 76.49 ± 1.8
398.5 K, Liquid | 76.51 ± 1.8
408.6 K, Liquid | 77.48 ± 1.8
418.8 K, Liquid | 76.93 ± 1.8
428.6 K, Liquid | 77.72 ± 1.8
438.5 K, Liquid | 78.11 ± 1.8
448.2 K, Liquid | 78.91 ± 1.8
458.5 K, Liquid | 79.41 ± 1.9
468.2 K, Liquid | 80.92 ± 1.9
478.2 K, Liquid | 81.81 ± 1.9
488.7 K, Liquid | 83.32 ± 1.9
498.1 K, Liquid | 83.92 ± 1.9
508.4 K, Gas | 63.31 ± 1.5
